Data reported in patent publication US6720450B2, “Pesticidal activity of functionalized cyclopropanes” (North Carolina State University, priority 2001, dated 2004).

Each compound was assayed on mosquito larvae (assay: Mosquito larval mortality bioassay in microtiter plates). Conditions: 72 h; larval mortality followed for three days; 160 μL sterile water, 1-4 μL test compound in dimethylsulfoxide, 10 μL 2% Brewer's yeast.
Format: in vivo
Description: The term “LC50” also is used hereinafter and refers to the concentration of a pest-controlling compound of the invention in the ambient environment of the pest species that is able to cause a 50% mortality of such species. For example, in tests described hereinafter, wherein compounds of the invention are tested for pesticidal efficacy against mosquito larvae, the compounds are present in a state of dynamic equilibrium in the aqueous environment containing the yeast and are taken up by the filter-feeding mosquito larvae during their feeding on the yeast.
(§1) Mosquito larval mortality was followed for three days in microtiter plates containing 160 μL sterile water, 1-4 μL of the test compound dissolved in dimethylsulfoxide, and 10 μL of 2% Brewer's yeast.
as §1, with “yeast. Controls were run under the same conditions without the test compounds. Larval mortality in the controls was 3% for 1-3 μL dimethylsulfoxide, and up to 20% for 4 μL dimethylsulfoxide.” for “yeast.”
`O=C(O)CCC1CC1CCC1CCCCC1` (stereo not drawn) [IBI-216, 7-Cyclohexyl-trans-(4,5-methano)heptanoic acid] was tested, and the LC50 was 300 ± 10 µM.
For `O=C(O)CCC1CC1CCc1ccc(-c2ccccc2)cc1` (stereo not drawn) [IBI-217, 7-(4-Phenyl)phenyl-trans-(4,5-methano)heptanoic acid], the LC50 was 130 ± 40 µM.
In the case of `O=C(O)CCC1CC1CCc1ccccc1` (stereo not drawn) [IBI-215, 7-Phenyl-trans-(4,5-methano)heptanoic acid], the LC50 is reported as 180 ± 30 µM.
